The term IC50 denotes the concentration that inhibits the measured activity by half.

Where a name gives a salt, the structure may show the parent alone.

The first experiment deals with T1, human calcium receptor (Homo sapiens, UniProt P41180).
T1 construct: expressed in transfected cells
T1 sequence (P41180 20-1078): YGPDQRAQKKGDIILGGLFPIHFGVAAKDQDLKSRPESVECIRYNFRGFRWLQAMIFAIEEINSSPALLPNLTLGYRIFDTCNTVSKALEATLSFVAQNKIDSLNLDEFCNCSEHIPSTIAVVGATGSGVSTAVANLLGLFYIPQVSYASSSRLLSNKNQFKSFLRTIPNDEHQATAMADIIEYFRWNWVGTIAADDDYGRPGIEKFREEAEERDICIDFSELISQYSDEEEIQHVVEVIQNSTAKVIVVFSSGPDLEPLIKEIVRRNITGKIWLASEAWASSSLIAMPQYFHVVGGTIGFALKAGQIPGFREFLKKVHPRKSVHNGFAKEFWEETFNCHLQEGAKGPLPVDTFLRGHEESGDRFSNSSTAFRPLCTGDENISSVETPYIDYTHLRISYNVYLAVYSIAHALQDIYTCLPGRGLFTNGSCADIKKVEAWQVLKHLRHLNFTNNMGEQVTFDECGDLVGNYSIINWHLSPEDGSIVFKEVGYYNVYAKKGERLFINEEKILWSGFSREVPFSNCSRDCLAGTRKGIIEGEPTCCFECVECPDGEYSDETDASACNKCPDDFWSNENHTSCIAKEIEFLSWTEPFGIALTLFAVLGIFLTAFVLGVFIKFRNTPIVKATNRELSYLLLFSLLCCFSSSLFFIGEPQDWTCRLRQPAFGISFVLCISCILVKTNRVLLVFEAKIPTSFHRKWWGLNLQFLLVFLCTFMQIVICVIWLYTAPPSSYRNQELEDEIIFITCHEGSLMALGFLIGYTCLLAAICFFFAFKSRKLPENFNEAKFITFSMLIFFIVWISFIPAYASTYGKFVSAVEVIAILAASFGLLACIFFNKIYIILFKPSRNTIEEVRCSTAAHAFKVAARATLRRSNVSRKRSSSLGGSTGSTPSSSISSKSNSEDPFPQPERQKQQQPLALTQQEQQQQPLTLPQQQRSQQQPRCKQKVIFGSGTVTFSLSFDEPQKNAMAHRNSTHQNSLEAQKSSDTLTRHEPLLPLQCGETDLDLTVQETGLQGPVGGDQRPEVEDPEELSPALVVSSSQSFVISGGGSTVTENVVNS
Briefly: Calcium Receptor Inhibitor Assay.
Settings: not given
Format: cell-based. As for the experimental part:
This example illustrates the use of the Calcium Receptor Inhibitor Assay. […] Res. 10 Suppl. […] Intracellular Ca^2+ was measured using fluo-3, a fluorescent calcium indicator.
The procedure was as follows:
1. Cells were maintained in T-150 flasks in selection media (DMEM supplemented with 10% fetal bovine serum and 200 μg/mL hygromycin B), under 5% CO2:95% air at 37° C. and were grown up to 90% confluency.
2. The medium was decanted and the cell monolayer was washed twice with phosphate-buffered saline (PBS) kept at 37° C. After the second wash, 6 mL of 0.02% EDTA in PBS was added and incubated for 4 minutes at 37° C. Following the incubation, cells were dispersed by gentle agitation.
3. Cells from 2 or 3 flasks were pooled and pelleted (100×g). The cellular pellet was resuspended in […] of SPF-PCB+ and pelleted again by centrifugation. This washing was done twice.
SPF-PCB was made up and stored at 4° C. On the day of use, SPF-PCB was supplemented with 1 mg/mL of D-glucose and 1 mM CaCl2 and then split into two fractions. To one fraction, bovine serum albumin (BSA; fraction V, ICN) was added at 5 mg/mL (SPF-PCB+). This buffer was used for washing, loading and maintaining the cells. The BSA-free fraction was used for diluting the cells in the cuvette for measurements of fluorescence.
5. Following the incubation period, the cells were pelleted by centrifugation. The resulting pellet was washed with SPF-PCB+. After this washing, cells were resuspended in SPF-PCB+ at a density of 1–2×10^6 cells/mL.
6. For recording fluorescent signals, 300 μL of cell suspension were diluted in 1.2 mL of SPF buffer containing 1 mM CaCl2 and 1 mg/mL of D-glucose. Measurements of fluorescence were performed at 37° C. with constant stirring using a spectrofluorimeter. […] To calibrate fluorescence signals, digitonin (5 mg/mL in ethanol) was added to obtain Fmax, and the apparent Fmin was determined by adding Tris-EGTA (2.5 M Tris-Base, 0.3 M EGTA).
7. To determine the potential calcilytic activity of test compounds, cells were incubated with test compound (or vehicle as a control) for 90 seconds before increasing the concentration of extracellular Ca^2+ from 1 to 2 mM. Calcilytic compounds were detected by their ability to block, in a concentration-dependent manner, increases in the concentration of intracellular Ca^2+ elicited by extracellular Ca^2+.
Turning to `CCCCCCCCCCC(O)CNC(C)(C)Cc1ccc(OC)cc1` (centres unmarked) [Compound 70, N-(2-Hydroxydodecanyl)-1.1-dimethyl-2-(4-methoxyphenyl)ethylamine], the IC50 is over 50000 nM.
As for `CCCCCCCCOCC(O)CNC(C)(C)Cc1ccc(OC)cc1` (centres unmarked) [Compound 65, N-(2-Hydroxy-3-octanoxypropyl)-1,1-dimethyl-2-(4-methoxyphenyl)ethylamine], the IC50 was under 1000 nM.

The experiment is the same for the next values; noted with them: HEK 293 4.0–7 cells stably expressing the human calcium receptor; fluo-3; read-out: IC50 for blocking increases of intracellular Ca2+ elicited by extracellular Ca2+.
As for `COc1ccc(CC(C)(C)NCC(O)COc2ccc(C(F)(F)F)cc2)cc1` (centres unmarked) [Compound 51, N-[2-Hydroxy-3-(4-trifluoromethylphenoxy)propyl]-1,1-dimethyl-2-(4-methoxyphenyl)ethylamine Hydrochloride], the IC50 is under 1000 nM.
Same read-out and setting: in the case of `COc1ccc(CC(C)(C)NCC(O)COc2cccc(C(C)(C)C)c2)cc1` (centres unmarked) [Compound 50, N-[2-Hydroxy-3-(3-t-butylphenoxy)propyl]-1,1-dimethyl-2-(4-methoxyphenyl)ethylamine Hydrochloride] it was under 1000 nM; in that of `COc1ccc(CC(C)(C)NCC(O)COCCCCCCc2ccccc2)cc1` (centres unmarked) [Compound 126, N-[2-hydroxy-3-(6-phenyl-hexanoxy)propyl]-1,1-dimethyl-2-(4-methoxyphenyl)ethylamine], under 1000 nM.
On the same count and under the same terms, in the case of `COc1ccc(CC(C)(C)NCC(O)COc2ccccc2)c(F)c1` (centres unmarked) [Compound 129, N-(2-hydroxy-3-phenoxypropyl)-1,1-dimethyl-2-(2-fluoro-4-methoxyphenyl)ethylamine Hydrochloride] it was under 1000 nM.
For the molecule `COc1ccc(CC(C)(C)NC[C@@H](O)COc2ccc(C(C)(C)C)cc2)cc1` (racemic) [Compound 20, (R) and (S)—N-[2-Hydroxy-3-(4-t-butylphenoxy)propyl]-1,1-dimethyl-2-(4-methoxyphenyl)ethylamine Hydrochloride], the IC50 is under 1000 nM.
In the case of `COc1ccc(CC(C)(C)NCC(O)COc2ccc(OC)cc2)cc1` (centres unmarked) [Compound 7, N-[2-Hydroxy-3-(4-methoxyphenoxy)propyl]-1,1-dimethyl-2-(4-methoxyphenyl)ethylamine Hydrochloride], the half-inhibitory concentration (IC50) is under 10000 nM.
With `CC(C)(Cc1ccc(Cl)c(Cl)c1)NC[C@@H](O)COc1c(C#N)sc2ccccc12` [Compound 166], the IC50 was under 1000 nM.
Still for that read-out and setting: next, `COC(=O)c1ccccc1OCC(O)CNC(C)(C)Cc1ccc(OC)cc1` (centres unmarked) [Compound 134, N-[2-hydroxy-3-(2-carbomethoxyphenoxy)propyl]-1,1-dimethyl-2-(4-methoxyphenyl)ethylamine Hydrochloride]: under 1000 nM; `COc1ccc(CC(C)(C)NCC(O)COc2ccc(OC)c(OC)c2)cc1` (centres unmarked) [Compound 132, N-[2-hydroxy-3-(3,4-dimethoxyphenoxy)propyl]-1,1-dimethyl-2-(4-methoxyphenyl)ethylamine Hydrochloride]: under 10000 nM.
In the case of `COc1ccc(CC(C)(C)NCC(O)COc2ccccc2Cl)cc1` (centres unmarked) [Compound 40, N-[2-Hydroxy-3-(2-chlorophenoxy)propyl]-1,1-dimethyl-2-(4-methoxyphenyl)ethylamine Hydrochloride], the IC50 is under 1000 nM.
As for `COc1ccc(CC(C)(C)NCC(O)COc2cccc3[nH]c(C(N)=O)cc23)cc1` (centres unmarked) [Compound 9, N-[2-Hydroxy-3-(4-(2-carboxamido)indoloxy)propyl]-1,1-dimethyl-2-(4-methoxyphenyl)ethylamine Hydrochloride], the IC50 is under 50000 nM.
On the same count and under the same terms, next, `CCC(C)(Cc1ccc(OC)cc1)NCC(O)COc1ccccc1` (centres unmarked) [Compound 113, N-(2-Hydroxy-3-phenoxypropyl)-1-ethyl-1-methyl-2-(4-methoxyphenyl)ethylamine Hydrochloride]: under 1000 nM; `COc1ccc(CC(C)(C)NCC(O)CCc2cccc3ccccc23)cc1` (racemic) [Compound 162, (R/S)-1-[[2,2-dimethyl-(4′methoxy)phenethyl]]amino-2-hydroxy-4(1′-naphthyl)-butane]: under 10000 nM.
Turning to `COc1ccc(CC(C)(C)NCC(O)COc2ccc(C)cc2)cc1` (centres unmarked) [Compound 135, N-[2-hydroxy-3-(4-methylphenoxy)propyl]-1,1-dimethyl-2-(4-methoxyphenyl)ethylamine Hydrochloride], the IC50 is under 1000 nM.
As to `COc1cccc(CC(C)(C)NCC(O)COc2ccccc2)c1` (centres unmarked) [Compound 99, N-(2-Hydroxy-3-phenoxypropyl)-1,1-dimethyl-2-(3-methoxyphenyl)ethylamine Hydrochloride], the concentration for half-maximal inhibition (IC50) is over 50000 nM.
With `CCOc1ccc(OCC(O)CNC(C)(C)Cc2ccc(OC)cc2)cc1` (centres unmarked) [Compound 144, N-[2-hydroxy-3-(4-ethoxyphenoxy)propyl]-1,1-dimethyl-2-(4-methoxyphenyl)ethylamine Hydrochloride], the IC50 is under 10000 nM.
As to `COc1ccc(CC(C)(C)NCC(O)COc2ccc(F)cc2)cc1` (centres unmarked) [Compound 44, N-[2-Hydroxy-3-(4-fluorophenoxy)propyl]-1,1-dimethyl-2-(4-methoxyphenyl)ethylamine Hydrochloride], the concentration for half-maximal inhibition (IC50) is under 1000 nM.
`COc1ccc(CC(C)(C)NCCCCOc2ccccc2)cc1` [Compound 36, N-(4-phenoxybutyl)-1,1-dimethyl-2-(4-methoxyphenyl)ethylamine]: the IC50 was over 50000 nM.
`COc1ccc(CC(C)(C)NC[C@@H](O)COc2cccc(Cl)c2Cl)cc1` [Compound 115, (R)—N-[2-Hydroxy-3-(2,3-dichlorophenoxy)propyl]-1,1-dimethyl-2-(4-methoxyphenyl)ethylamine Hydrochloride]: the IC50 was under 1000 nM.
Still for that read-out and setting: next, `COc1ccc(CCC(C)(C)NCC(O)COc2ccccc2)cc1` (centres unmarked) [Compound 90, N-(2-Hydroxy-3-phenoxypropyl)-1,1-dimethyl-3-(4-methoxyphenyl)propylamine Hydrochloride]: under 50000 nM; `COc1ccc(CC(C)(C)NCC(O)COc2cccc(OC(F)(F)F)c2)cc1` (centres unmarked) [Compound 154, N-[2-hydroxy-3-(3-trifluoromethoxyphenoxy)propyl]-1,1-dimethyl-2-(4-methoxyphenyl)ethylamine Hydrochloride]: under 1000 nM.
For the molecule `COc1ccc(CC(C)(C)NCC(O)COc2ccc(Cl)cc2)cc1` (centres unmarked) [Compound 5, N-[2-Hydroxy-3-(4-chlorophenoxy)propyl]-1,1-dimethyl-2-(4-methoxyphenylethylamine Hydrochloride], the IC50 was under 1000 nM.
In the case of `COc1ccc(CC(C)(C)NCC(O)COc2ccccc2C(C)C)cc1` (centres unmarked) [Compound 153, N-[2-hydroxy-3-(2-iso-propylphenoxy)propyl]-1,1-dimethyl-2-(4-methoxyphenyl)ethylamine Hydrochloride], the IC50 was under 1000 nM.
On to `COc1ccc(CC(C)(C)NCC(O)COc2cccc(C(F)(F)F)c2)cc1` (centres unmarked) [Compound 46, N-[2-Hydroxy-3-(3-trifluoromethylphenoxy)propyl]-1,1-dimethyl-2-(4-methoxyphenyl)ethylamine Hydrochloride], for which the IC50 was under 1000 nM.

(Values after patent US7202261B2, “Calcilytic compounds” (NPS Pharmaceuticals, Inc., priority 1996, dated 2007).)
